Legend:
Cannabinoid receptor 1 [1] = target: T1, Cannabinoid receptor 1 (Homo sapiens, UniProt P21554); experiment: Selectivity interaction (CNR1 functional assay (GTPyS binding)) EUB0000291b CNR1
Cannabinoid receptor 1 [2] = target: T1, Cannabinoid receptor 1; experiment: Selectivity interaction (Eurofins-Panlabs radioligand binding assay) EUB0000291b CNR1; conditions: at 10 µM
[3] = target: Proteinase-activated receptor 4 (Homo sapiens, UniProt Q96RI0); experiment: Selectivity interaction (Functional cellular assay (using HEK cells expressing F2RL3)) EUB0000291b F2RL3
Sequence of Proteinase-activated receptor 4 (Q96RI0 whole entry): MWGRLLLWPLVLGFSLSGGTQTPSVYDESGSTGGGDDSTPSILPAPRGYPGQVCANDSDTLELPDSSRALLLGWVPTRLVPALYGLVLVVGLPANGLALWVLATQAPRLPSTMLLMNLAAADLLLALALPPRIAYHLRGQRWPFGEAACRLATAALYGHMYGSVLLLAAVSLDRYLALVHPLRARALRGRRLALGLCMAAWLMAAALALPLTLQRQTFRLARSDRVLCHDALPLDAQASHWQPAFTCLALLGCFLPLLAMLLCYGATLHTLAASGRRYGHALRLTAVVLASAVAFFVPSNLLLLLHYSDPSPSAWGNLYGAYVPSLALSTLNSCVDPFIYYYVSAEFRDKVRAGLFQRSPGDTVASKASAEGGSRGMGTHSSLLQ

[4] = target: Serine/threonine-protein kinase DCLK2 (Homo sapiens) (UniProt Q8N568); experiment: Selectivity interaction (KinomeScan (DiscoverX)) EUB0000291b DCLK2; conditions: at 1 µM
Sequence of Serine/threonine-protein kinase DCLK2 (Homo sapiens) (Q8N568 whole entry): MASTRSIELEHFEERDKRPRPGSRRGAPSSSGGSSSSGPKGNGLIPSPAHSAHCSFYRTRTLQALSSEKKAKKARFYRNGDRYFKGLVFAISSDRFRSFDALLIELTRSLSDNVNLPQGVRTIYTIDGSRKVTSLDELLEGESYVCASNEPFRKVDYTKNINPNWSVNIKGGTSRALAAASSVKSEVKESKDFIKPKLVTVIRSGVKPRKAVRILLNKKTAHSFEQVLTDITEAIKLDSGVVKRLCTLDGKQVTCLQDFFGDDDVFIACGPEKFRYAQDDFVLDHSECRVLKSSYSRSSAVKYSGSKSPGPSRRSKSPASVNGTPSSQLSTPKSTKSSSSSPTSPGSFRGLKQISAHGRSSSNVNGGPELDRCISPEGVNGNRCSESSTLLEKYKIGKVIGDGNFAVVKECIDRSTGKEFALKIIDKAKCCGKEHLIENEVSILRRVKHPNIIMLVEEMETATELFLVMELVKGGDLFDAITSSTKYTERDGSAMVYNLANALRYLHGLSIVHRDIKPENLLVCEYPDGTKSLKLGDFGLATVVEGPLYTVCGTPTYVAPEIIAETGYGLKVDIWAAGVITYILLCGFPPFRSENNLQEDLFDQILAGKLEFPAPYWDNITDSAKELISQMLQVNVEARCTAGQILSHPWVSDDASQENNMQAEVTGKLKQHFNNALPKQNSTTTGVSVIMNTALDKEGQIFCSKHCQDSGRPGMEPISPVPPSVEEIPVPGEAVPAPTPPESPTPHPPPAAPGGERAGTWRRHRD

[5] = target: Cyclin-dependent kinase 4 (Homo sapiens) (UniProt P11802); experiment: Selectivity interaction (KinomeScan (DiscoverX)) EUB0000291b CDK4; conditions: at 1 µM
Sequence of Cyclin-dependent kinase 4 (Homo sapiens) (P11802 whole entry): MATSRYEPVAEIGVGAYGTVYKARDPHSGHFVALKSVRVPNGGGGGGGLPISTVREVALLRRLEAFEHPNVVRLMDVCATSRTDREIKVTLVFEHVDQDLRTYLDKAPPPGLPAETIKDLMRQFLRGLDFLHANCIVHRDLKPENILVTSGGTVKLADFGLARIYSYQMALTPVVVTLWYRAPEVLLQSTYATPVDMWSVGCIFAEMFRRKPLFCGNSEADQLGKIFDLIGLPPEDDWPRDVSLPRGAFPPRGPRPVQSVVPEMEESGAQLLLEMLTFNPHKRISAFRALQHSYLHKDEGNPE

[6] = target: Cyclin-dependent kinase 18 (Homo sapiens) (UniProt Q07002); experiment: Selectivity interaction (KinomeScan (DiscoverX)) EUB0000291b CDK18; conditions: at 1 µM
[7] = target: Non-receptor tyrosine-protein kinase TYK2 (Homo sapiens, UniProt P29597); experiment: Selectivity interaction (KinomeScan (DiscoverX)) EUB0000291b TYK2; conditions: at 1 µM
[8] = target: Cyclin-dependent kinase 11A (Homo sapiens) (UniProt Q9UQ88); experiment: Selectivity interaction (KinomeScan (DiscoverX)) EUB0000291b CDK11A; conditions: at 1 µM
Sequence of Cyclin-dependent kinase 11A (Homo sapiens) (Q9UQ88 whole entry): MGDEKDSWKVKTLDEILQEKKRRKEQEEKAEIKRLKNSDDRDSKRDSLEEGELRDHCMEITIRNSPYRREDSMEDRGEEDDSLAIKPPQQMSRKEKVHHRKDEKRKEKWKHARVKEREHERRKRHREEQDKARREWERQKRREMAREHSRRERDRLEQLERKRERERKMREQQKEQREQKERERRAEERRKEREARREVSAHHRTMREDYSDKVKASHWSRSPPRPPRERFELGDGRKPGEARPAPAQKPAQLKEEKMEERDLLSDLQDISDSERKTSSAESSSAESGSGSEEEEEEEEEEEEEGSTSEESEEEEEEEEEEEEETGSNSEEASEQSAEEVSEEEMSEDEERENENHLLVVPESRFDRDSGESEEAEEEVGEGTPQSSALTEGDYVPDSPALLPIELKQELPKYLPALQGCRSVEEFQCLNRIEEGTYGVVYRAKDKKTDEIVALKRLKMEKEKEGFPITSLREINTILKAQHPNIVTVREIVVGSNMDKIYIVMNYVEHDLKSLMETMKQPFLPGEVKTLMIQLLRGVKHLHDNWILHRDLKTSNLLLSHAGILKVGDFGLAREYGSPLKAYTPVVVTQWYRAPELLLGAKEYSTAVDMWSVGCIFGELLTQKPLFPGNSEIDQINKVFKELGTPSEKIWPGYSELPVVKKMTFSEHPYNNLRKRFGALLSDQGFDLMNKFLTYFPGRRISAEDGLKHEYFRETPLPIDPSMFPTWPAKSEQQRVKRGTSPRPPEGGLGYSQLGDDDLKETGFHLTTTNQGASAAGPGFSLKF

[9] = target: Mitogen-activated protein kinase kinase kinase 12 (Homo sapiens) (UniProt Q12852); experiment: Selectivity interaction (KinomeScan (DiscoverX)) EUB0000291b MAP3K12; conditions: at 1 µM
Sequence of Mitogen-activated protein kinase kinase kinase 12 (Homo sapiens) (Q12852 whole entry): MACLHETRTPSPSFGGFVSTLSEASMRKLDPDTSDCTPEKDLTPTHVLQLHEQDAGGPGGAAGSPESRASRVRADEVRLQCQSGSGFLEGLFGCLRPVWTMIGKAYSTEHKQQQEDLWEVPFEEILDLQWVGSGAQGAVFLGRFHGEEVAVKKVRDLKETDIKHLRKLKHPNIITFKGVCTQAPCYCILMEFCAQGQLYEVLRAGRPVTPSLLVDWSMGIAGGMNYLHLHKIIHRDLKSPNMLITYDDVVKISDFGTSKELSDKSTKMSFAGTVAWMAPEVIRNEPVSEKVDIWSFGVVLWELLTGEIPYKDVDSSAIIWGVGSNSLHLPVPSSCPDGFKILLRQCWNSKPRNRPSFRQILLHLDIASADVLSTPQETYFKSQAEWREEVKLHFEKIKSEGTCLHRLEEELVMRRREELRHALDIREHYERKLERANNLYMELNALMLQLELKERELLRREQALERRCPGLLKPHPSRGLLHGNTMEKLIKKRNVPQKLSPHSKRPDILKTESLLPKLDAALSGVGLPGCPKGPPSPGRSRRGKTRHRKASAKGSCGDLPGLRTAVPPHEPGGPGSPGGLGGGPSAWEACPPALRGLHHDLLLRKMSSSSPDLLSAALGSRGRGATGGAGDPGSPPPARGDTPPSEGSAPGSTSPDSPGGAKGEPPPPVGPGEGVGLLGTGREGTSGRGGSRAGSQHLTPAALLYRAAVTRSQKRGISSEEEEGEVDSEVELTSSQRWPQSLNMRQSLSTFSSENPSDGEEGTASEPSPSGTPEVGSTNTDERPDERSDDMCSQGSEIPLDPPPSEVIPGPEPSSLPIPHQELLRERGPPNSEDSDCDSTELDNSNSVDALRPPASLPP

[10] = target: T2, Gamma-aminobutyric acid receptor subunit alpha-1 (Homo sapiens, UniProt P14867); experiment: Selectivity interaction (GPCR panel (PDSP screen)) EUB0000548a GABRA1
T2 sequence (P14867 whole entry): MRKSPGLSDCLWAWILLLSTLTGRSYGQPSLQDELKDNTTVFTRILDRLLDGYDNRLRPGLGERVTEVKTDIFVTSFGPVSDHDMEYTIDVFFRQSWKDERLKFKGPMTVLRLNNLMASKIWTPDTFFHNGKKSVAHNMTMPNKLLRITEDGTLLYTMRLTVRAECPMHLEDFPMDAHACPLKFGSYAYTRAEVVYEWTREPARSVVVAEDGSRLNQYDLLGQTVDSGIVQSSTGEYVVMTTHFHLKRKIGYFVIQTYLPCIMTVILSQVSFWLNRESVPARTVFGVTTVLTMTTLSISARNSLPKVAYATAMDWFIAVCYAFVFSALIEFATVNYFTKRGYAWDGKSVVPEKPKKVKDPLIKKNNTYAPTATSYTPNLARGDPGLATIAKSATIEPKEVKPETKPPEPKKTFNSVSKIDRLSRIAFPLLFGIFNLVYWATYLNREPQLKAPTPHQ

[11] = target: T3, Myosin-IIIb (Homo sapiens) (UniProt Q8WXR4); experiment: Selectivity interaction (KinomeScan (DiscoverX)) EUB0000548a MYO3B; conditions: at 1 µM
T3 sequence (whole entry): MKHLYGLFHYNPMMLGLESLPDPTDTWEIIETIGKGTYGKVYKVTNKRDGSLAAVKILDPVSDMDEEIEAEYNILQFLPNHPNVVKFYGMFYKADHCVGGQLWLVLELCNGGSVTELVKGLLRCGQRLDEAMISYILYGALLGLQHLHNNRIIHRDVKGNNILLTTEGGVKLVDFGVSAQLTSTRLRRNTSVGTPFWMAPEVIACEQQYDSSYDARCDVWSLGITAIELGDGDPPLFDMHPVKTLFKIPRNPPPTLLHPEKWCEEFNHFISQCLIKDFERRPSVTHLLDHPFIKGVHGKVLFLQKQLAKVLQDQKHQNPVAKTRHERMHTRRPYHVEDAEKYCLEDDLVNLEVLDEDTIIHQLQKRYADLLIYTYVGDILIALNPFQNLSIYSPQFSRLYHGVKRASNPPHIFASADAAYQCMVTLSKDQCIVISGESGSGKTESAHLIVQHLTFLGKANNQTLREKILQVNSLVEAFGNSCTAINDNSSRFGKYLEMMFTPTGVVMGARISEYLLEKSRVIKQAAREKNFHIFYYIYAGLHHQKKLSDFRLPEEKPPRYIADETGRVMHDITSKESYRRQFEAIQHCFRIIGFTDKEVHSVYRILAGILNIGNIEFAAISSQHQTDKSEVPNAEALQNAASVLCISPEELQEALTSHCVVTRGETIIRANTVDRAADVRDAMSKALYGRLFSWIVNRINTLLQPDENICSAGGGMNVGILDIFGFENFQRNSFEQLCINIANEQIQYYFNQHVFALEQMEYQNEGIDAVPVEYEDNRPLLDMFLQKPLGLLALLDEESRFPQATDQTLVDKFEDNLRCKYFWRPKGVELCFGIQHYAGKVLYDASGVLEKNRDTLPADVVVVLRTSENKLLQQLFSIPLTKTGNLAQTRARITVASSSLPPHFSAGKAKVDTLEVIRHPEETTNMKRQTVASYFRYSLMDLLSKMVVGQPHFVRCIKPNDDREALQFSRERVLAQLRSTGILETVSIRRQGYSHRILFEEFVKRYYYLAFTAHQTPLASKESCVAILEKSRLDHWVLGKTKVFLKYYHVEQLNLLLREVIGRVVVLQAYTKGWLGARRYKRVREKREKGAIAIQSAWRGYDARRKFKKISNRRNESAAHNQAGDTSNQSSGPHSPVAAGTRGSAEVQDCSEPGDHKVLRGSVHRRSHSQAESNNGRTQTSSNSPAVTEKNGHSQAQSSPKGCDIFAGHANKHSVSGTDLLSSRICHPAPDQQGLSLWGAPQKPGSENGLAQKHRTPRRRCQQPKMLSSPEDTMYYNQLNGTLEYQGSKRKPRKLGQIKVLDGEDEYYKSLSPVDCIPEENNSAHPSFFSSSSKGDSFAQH

[12] = target: Receptor-type tyrosine-protein kinase FLT3 (Homo sapiens) (UniProt P36888); experiment: Selectivity interaction (KinomeScan (DiscoverX)) EUB0000548a FLT3; conditions: at 1 µM
Sequence of Receptor-type tyrosine-protein kinase FLT3 (Homo sapiens) (P36888 whole entry): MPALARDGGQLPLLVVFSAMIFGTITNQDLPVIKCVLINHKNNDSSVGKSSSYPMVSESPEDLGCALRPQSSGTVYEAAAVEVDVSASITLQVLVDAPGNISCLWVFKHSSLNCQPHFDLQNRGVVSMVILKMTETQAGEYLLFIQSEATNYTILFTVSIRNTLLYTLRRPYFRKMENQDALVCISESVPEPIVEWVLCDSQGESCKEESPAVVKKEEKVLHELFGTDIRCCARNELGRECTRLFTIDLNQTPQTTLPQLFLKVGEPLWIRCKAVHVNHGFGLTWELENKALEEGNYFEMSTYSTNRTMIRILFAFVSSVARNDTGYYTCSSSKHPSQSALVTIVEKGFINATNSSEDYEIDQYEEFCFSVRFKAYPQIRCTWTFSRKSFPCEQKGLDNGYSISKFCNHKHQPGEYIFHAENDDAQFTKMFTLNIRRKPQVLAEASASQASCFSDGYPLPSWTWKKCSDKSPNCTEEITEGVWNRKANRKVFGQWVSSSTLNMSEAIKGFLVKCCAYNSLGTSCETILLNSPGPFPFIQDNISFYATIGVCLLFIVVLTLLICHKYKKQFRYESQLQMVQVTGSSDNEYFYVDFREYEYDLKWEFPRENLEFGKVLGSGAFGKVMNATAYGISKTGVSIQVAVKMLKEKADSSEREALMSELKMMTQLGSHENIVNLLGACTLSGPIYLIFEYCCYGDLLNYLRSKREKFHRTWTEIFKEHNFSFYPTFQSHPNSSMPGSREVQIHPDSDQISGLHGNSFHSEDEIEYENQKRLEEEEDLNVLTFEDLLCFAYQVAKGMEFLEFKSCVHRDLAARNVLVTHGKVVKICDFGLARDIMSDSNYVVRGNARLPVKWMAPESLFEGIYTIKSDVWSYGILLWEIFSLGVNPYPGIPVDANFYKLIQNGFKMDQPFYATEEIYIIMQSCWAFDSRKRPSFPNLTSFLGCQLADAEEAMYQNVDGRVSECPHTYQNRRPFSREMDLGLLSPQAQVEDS

[13] = target: T2, Gamma-aminobutyric acid receptor subunit alpha-1; experiment: Selectivity interaction (GPCR panel (PDSP screen)) EUB0000587a GABRA1
[14] = target: Tyrosine-protein kinase Fyn (Homo sapiens, UniProt P06241); experiment: Selectivity interaction (Kinase panel (HTRF assay)) EUB0000221b FYN
[15] = target: Histone-lysine N-methyltransferase SMYD3 (Homo sapiens) (UniProt Q9H7B4); experiment: Selectivity interaction (Methyltransferase panel) EUB0000221b SMYD3; conditions: at 10 µM
Sequence of Histone-lysine N-methyltransferase SMYD3 (Homo sapiens) (Q9H7B4 whole entry): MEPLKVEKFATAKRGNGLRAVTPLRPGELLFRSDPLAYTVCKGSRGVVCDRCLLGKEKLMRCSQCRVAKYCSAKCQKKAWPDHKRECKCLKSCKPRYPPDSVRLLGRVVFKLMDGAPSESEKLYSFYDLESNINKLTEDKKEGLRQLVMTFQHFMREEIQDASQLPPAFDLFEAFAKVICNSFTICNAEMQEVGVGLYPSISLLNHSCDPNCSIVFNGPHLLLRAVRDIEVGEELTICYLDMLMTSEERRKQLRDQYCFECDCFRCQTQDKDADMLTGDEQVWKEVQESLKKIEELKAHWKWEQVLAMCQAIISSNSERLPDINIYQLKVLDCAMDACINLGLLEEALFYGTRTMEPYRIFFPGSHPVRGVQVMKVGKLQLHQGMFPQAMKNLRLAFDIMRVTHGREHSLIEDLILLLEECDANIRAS

T1 sequence (P21554 whole entry): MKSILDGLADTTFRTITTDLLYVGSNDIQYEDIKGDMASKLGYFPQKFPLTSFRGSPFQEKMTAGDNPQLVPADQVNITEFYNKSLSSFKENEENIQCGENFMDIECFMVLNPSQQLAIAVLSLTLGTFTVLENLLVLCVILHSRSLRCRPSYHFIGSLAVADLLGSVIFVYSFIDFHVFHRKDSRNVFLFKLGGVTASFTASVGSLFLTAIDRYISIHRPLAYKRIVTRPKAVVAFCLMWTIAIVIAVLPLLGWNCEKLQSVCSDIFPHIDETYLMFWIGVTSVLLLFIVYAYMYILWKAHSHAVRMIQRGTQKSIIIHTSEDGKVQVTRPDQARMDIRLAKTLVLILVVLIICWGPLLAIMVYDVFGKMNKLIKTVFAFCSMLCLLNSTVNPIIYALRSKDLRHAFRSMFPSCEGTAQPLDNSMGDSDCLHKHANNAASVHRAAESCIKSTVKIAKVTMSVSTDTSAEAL

In the case of O=C(N1CCS(=O)(=O)CC1)N1C[C@H](c2ccc(OC(F)(F)F)cc2)C[C@H](c2nc(C3CC3)no2)C1 [BAY-386], the IC50 (Cannabinoid receptor 1 [1]) is reported as 10.6 µM, the % of inhibition (Cannabinoid receptor 1 [2]) is reported as 88% and the IC50 [3] is reported as > 10 µM. For the same compound, the % of control [4] was 0%, the % of control [5] was 18% and the % of control [6] was 0%. For the same compound, the % of control [7] was 53%, the % of control [8] was 0% and the % of control [9] was 0%.
NS(=O)(=O)c1cc(NC(=O)C2(c3ccccc3Cl)CC2)ccc1Oc1cccc(Cl)c1 [BAY-207] was tested, and the Ki [10] was 0.25 µM, the % of control [11] was 29% and the % of control [12] was 32%.
Compound CCNC(=O)c1cc2c(N3CCOC[C@@H]3C)ccnc2n1C has a Ki [13] of 0.224 µM.
C[C@H]1CC(=O)Nc2cc(C(=O)NCCC3CC3)ccc2N1C(=O)N1CC2CC2C1 (stereo not given in full) showed an IC50 [14] of 5.71 µM and a % of activity remaining [15] of 40%.

Reference: ChEMBL document CHEMBL5212743, “Selectivity Literature for EUbOPEN Chemogenomics Library wave 3” (2023)
